# Source: ChEMBL document CHEMBL5143691, “Lead optimization of pyrido[2,3-d][1]benzazepin-6-one derivatives leading to the discovery of a potent, selective, and orally available human parathyroid hormone receptor 1 (hPTHR1) antagonist (DS69910557)” (Bioorg Med Chem, 2022)
# pIC50: −log10 of the molar value.
# Experiments:
# [1] = target: T1, Parathyroid hormone/parathyroid hormone-related peptide receptor (Homo sapiens, UniProt Q03431); assay: Antagonist activity against human PTHR1 expressed in CHO-K1 cells assessed as reduction in PTH induced cAMP level incubated for 30 mins in presence of IBMX by cAMP assay
# T1 sequence (Q03431 whole entry): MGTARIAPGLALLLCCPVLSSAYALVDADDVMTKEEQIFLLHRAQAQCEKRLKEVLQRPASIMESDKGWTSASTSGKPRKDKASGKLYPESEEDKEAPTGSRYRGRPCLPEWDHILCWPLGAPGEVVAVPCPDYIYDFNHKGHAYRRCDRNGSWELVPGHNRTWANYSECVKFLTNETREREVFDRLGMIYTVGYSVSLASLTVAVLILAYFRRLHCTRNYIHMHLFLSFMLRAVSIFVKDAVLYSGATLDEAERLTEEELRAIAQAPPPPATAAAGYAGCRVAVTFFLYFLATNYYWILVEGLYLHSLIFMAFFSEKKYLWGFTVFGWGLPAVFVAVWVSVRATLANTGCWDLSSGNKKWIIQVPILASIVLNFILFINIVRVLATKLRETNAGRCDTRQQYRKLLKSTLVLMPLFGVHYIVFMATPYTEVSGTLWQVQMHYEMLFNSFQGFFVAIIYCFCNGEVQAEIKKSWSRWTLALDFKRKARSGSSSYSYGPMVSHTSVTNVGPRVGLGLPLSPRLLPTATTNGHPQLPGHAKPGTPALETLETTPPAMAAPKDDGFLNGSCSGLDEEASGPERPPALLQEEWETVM
# [2] = Metabolic stability in rat liver microsomes assessed as compound remaining at 1 uM incubated for 30 mins in presence of NADPH by LC-MS/MS analysis
# physchem [3] = conditions: JP2 fluid, pH 6.8
# physchem [4] = conditions: JP1 fluid, pH 1.2
# hERG (KCNH2) = hERG (KCNH2) (Homo sapiens, UniProt Q12809); assay: Inhibition of human ERG potassium channel expressed in CHO-K1 cells at 3 uM incubated for 5 mins by patch clamp assay; format: toxicity, cell-based; conditions: CHO-K1 cells expressing human ERG potassium channel
# hERG (KCNH2), sequence (Q12809 whole entry): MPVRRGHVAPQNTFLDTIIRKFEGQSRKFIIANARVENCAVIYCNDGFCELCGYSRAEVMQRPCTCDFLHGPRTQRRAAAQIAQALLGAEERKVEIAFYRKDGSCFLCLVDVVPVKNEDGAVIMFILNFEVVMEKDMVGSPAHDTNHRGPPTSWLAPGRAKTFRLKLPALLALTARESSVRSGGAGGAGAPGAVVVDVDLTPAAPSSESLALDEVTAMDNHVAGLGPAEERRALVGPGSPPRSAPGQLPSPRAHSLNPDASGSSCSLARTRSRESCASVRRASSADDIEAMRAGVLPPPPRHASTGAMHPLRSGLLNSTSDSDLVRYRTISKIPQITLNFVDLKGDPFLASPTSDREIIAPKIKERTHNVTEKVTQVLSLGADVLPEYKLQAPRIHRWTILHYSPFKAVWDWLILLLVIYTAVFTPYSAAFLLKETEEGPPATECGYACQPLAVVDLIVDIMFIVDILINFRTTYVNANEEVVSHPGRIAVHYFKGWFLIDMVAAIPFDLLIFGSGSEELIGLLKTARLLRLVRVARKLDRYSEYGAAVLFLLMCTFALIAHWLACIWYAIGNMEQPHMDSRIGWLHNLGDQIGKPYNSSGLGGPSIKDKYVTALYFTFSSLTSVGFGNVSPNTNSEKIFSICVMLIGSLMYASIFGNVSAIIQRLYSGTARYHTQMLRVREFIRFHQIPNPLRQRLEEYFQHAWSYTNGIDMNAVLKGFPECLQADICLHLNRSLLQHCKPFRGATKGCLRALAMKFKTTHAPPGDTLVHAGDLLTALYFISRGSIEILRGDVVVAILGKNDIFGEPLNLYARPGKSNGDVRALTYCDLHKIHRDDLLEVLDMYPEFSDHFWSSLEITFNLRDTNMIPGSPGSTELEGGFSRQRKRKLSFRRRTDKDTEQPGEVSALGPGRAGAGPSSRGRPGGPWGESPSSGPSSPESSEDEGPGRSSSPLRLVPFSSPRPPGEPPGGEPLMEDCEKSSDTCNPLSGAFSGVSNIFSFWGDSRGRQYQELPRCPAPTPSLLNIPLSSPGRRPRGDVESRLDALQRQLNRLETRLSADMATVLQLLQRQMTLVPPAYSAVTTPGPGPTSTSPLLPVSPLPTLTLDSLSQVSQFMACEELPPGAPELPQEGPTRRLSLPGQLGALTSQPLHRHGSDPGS
# CYP2C19 = CYP2C19 (Homo sapiens, UniProt P33261); assay: Inhibition of CYP2C19 (unknown origin) at 10 uM relative to control; format: ADME
# CYP2C19, sequence (P33261 whole entry): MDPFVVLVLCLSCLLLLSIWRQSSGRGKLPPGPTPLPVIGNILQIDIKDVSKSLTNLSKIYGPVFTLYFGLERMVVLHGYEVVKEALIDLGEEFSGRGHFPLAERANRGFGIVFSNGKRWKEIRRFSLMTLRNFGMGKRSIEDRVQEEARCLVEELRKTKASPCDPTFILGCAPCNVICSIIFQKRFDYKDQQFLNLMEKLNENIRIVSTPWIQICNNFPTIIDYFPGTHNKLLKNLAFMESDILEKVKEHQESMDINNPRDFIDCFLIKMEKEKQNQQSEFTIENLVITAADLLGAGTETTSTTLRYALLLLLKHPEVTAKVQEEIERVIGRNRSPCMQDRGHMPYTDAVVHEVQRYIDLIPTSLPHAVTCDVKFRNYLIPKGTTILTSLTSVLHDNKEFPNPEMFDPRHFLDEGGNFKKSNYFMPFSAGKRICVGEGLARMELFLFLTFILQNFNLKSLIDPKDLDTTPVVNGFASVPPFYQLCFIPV
# CYP1A2 = target: T2, CYP1A2 (Homo sapiens, UniProt P05177); assay: Inhibition of CYP1A2 (unknown origin) at 10 uM relative to control; format: ADME
# T2 sequence (P05177 whole entry): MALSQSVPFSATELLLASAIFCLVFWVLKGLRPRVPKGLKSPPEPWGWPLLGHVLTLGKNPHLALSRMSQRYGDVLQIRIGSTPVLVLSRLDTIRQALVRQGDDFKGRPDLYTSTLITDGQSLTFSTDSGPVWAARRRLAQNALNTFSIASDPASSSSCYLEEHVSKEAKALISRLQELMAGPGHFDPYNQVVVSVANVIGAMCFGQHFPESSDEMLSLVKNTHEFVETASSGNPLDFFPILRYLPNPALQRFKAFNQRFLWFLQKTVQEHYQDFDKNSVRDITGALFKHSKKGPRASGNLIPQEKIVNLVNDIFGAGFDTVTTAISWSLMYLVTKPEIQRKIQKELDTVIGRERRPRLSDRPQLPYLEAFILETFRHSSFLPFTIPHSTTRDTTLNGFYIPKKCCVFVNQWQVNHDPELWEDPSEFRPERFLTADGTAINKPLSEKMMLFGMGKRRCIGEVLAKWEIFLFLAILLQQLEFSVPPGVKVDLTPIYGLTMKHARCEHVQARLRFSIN
# CYP2D6 = CYP2D6 (Homo sapiens, UniProt P10635); assay: Inhibition of CYP2D6 (unknown origin) at 10 uM relative to control; format: ADME
# CYP2D6, sequence (P10635 whole entry): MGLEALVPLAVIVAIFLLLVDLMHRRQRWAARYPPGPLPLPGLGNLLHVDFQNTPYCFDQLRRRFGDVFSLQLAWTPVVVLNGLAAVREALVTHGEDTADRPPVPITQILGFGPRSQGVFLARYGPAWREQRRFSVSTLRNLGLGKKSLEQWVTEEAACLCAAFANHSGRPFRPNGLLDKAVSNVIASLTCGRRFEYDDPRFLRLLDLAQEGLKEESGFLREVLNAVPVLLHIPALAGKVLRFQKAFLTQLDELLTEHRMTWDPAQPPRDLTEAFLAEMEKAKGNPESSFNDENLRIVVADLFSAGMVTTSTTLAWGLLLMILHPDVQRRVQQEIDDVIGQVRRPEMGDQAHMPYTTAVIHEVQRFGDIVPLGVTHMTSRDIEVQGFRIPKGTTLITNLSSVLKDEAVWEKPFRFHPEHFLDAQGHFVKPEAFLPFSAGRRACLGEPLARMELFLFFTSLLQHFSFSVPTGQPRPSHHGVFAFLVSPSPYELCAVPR
# CYP2C8 = target: T3, CYP2C8 (Homo sapiens, UniProt P10632); assay: Inhibition of CYP2C8 (unknown origin) at 10 uM relative to control; format: ADME
# T3 sequence (P10632 whole entry): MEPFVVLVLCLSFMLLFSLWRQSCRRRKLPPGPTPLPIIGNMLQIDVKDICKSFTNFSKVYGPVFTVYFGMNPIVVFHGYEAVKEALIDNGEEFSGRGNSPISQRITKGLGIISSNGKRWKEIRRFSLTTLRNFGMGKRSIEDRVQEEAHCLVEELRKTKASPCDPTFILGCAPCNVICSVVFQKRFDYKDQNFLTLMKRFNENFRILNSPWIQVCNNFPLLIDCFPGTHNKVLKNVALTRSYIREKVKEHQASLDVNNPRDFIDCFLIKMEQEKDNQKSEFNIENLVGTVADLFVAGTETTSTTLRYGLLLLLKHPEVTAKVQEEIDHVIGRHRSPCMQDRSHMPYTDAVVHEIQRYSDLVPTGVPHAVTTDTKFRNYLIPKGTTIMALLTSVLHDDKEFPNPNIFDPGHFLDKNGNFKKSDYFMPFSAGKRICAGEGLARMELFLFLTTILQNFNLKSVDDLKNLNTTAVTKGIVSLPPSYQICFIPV
# [5] = Distribution coefficient, log D of compound in 1-octanol and aqueous phosphate buffered saline at pH 7.4 incubated for 30 mins by HPLC-MS analysis; conditions: 1-octanol/phosphate buffered saline
# [6] = AUClast in Sprague-Dawley rat at 5 mg/kg, po by LC-MS/MS analysis; conditions: in vivo
# in vivo = conditions: Sprague-Dawley, rat, po, 5 mg/kg
SMILES,pIC50 [1],"remaining at 0.5 h, 1 µM [2]",solubility at 4 h (physchem [3]),solubility at 4 h (physchem [4]),"inhibition at 5 min, 3 µM (hERG (KCNH2))",other results
CC1(C)C(=O)N(c2ccc(N3CC(CN[C@H]4CC[C@H](C(=O)O)CC4)C3)cc2)c2cc(Cl)ccc2-c2cc(Cl)cnc21,–,–,–,–,0%,–
COC1(CN[C@H]2CC[C@H](C(=O)O)CC2)CN(c2ccc(N3C(=O)C(C)(C)c4ncc(Cl)cc4-c4ccc(Cl)cc43)cc2)C1,–,–,–,–,0%,–
CC1(C)C(=O)N(c2ccc(N3CC(F)(CN[C@H]4CC[C@H](C(=O)O)CC4)C3)cc2)c2cc(Cl)ccc2-c2cc(Cl)cnc21,–,–,–,–,2%,inhibition at 10 µM (CYP2C19): < 50%; inhibition at 10 µM (CYP1A2): < 50%; inhibition at 10 µM (CYP2D6): < 50%; inhibition at 10 µM (CYP2C8): < 50%
CC1(C)C(=O)N(c2ccc(N3CC(F)(CNC45CCC(C(=O)O)(CC4)CC5)C3)cc2)c2cc(Cl)ccc2-c2cc(Cl)cnc21,7.05,97%,–,–,–,logD at 0.5 h [5]: 2.8; AUC(0-t) [6]: 11900 ng·h/mL; Cmax (in vivo): 900 ng/mL

# Now from value to compound, other results behind:
pIC50 [1],"remaining at 0.5 h, 1 µM [2]",solubility at 4 h (physchem [3]),solubility at 4 h (physchem [4]),SMILES,"inhibition at 5 min, 3 µM (hERG (KCNH2))",other results
6.08,82%,88 µg/mL,940 µg/mL,CC1(C)C(=O)N(c2ccc(N3CC(O)(CNC4CCOCC4)C3)cc2)c2cc(Cl)ccc2-c2cc(Cl)cnc21,–,–
6.96,23%,0.7 µg/mL,160 µg/mL,COC(=O)C1(CNC2CCOCC2)CN(c2ccc(N3C(=O)C(C)(C)c4ncc(Cl)cc4-c4ccc(Cl)cc43)cc2)C1,–,–
6.11,23%,2.5 µg/mL,530 µg/mL,COC1(CN(C)C2CCOCC2)CN(c2ccc(N3C(=O)C(C)(C)c4ncc(Cl)cc4-c4ccc(Cl)cc43)cc2)C1,–,–
4.64,93%,97 µg/mL,100 µg/mL,CC1(C)C(=O)N(c2ccc(N3CC(CNC4CCOCC4)(C(=O)O)C3)cc2)c2cc(Cl)ccc2-c2cc(Cl)cnc21,–,–
